Several values for one entry are separate records, joined by “and”; a condition that tells them apart may be missing. Equal entries are not always repeated. Where two headings read alike, the source gives them in different places. Each block holds one compound with its values, some of them ahead of it. Numbered stars: 1 amine (or outer) side, 2 acyl side, 3 side chain; on linkers, the order of the positions; unused ones are H or OH. Bridge positions count the residues as written; N and C are the ends. Square brackets hold non-standard residues; d marks the D form. Peptide text beside a SMILES is read from it. * marks the point of attachment. X1 = CC[C@H](C)[C@@H](N[*:1])[C@@H](O)CC(=O)O[C@H](C(=O)[C@H](C)C(=O)[*:2])C(C)C; NMeY = CN[C@@H](Cc1ccc(O)cc1)C(=O)O; dNMeL = CN[C@H](CC(C)C)C(=O)O; Pyruvoyl = CC(=O)C(=O)*
Tests used:
[1] = tested on: MM; set-up: method as in PMID 23950178, PMID 28642620, PMID 24429336, PMID 28847998, PMID 27091875; details: named drug in a BTZ and DXM-containing combination; cited from earlier work
[2] = BTZ plasma pharmacokinetics, non-compartmental; assay type: in vivo, human; details: mean (SD); for C max: NCA, UPLC-MS/MS
Experimental: (§1) Sixteen samples were collected from each patient to quantify plitidepsin whole blood and BTZ plasma concentrations at baseline and at different times 1 week after the first infusion. In patients treated at the RD, 15 additional samples were taken 1 week after the second plitidepsin infusion.
(§2) Continuous variables were presented with summary statistics and categorical variables in frequency tables. Time‐to‐event variables were calculated using Kaplan–Meier approach. Binomial exact distribution was used to calculate 95% confidence intervals (95%CIs) for categorical variables. Individual PK parameters were tabulated. Statistical analyses were performed using SAS v.9.2, (SAS Institute Inc), and PK non‐compartmental analysis (NCA) was performed using Phoenix WinNonlin v.6.3.
Both drugs (plitidepsin and BTZ) were measured by validated liquid extraction methods followed by ultra-performance liquid chromatography tandem mass-spectrometry detection (Dynakin, Derio, Spain). The calibration range for plitidepsin and BTZ was 0.25-100 ng/mL, and 0.1-5 ng/mL, respectively.

[3] = tested on: MM; details: cited from earlier work
Source text: Results of the VISTA trial were further supported by those of phase II trials: RETRIEVE (ORR: 40%) and SUMMIT (ORR: 35%, including minimal response while on BTZ treatment), and of the phase III APEX trial (crossover from DXM to BTZ), in which the overall and complete response rates with BTZ were 43% and 9%, respectively.[9], [10], [11]

[4] = tested on: MM; details: phase III VISTA trial; single-agent BTZ re-treatment; cited from earlier work
Source text: The feasibility of re‐treating MM patients with single‐agent bortezomib (BTZ) was first confirmed in the phase III VISTA trial,[8] where 47% of patients pre‐treated with BTZ‐based regimens during earlier phases of the disease responded again to the drug alone. This was further supported by the results of the phase II RETRIEVE and SUMMIT trials and the phase III APEX trial.[9], [10], [11]

[5] = set-up: method as in Moreau et al[25]; details: BTZ 1.3 mg/m^2 subcutaneously, reference study in MM patients; mean (SD), n = 10; ref Moreau et al[25]; cited from earlier work
[6] = Plitidepsin whole blood pharmacokinetics, non-compartmental; assay type: in vivo; details: human, iv, mean (SD); for Cmax: NCA, UPLC-MS/MS
Experimental: as §1, §2
Both drugs (plitidepsin and BTZ) were measured by validated liquid extraction methods followed by ultra-performance liquid chromatography tandem mass-spectrometry detection (Dynakin, Derio, Spain). The calibration range for plitidepsin and BTZ was 0.25-100 ng/mL, and 0.1-5 ng/mL, respectively. The reference for plitidepsin PK results was a population-PK model of plitidepsin (data from 303 patients treated in seven phase II studies and one phase III study), which was used to simulate exposure in whole blood after one 3-hour i.v. infusion of 5.0 mg/m² of plitidepsin in patients with similar characteristics compared to those treated in this study (unpublished data). The reference for BTZ PK results was a phase I study in patients with MM (see Moreau et al (25)).

[7] = patients with MM treated with plitidepsin in other trials; ref unpublished data; cited from earlier work
Source text: The plitidepsin concentrations found in this study fitted within the 90% prediction interval simulated for patients with MM, although most were above the 50th pe ...

[8] = tested on: MM cell lines and primary MM cells; details: cited from earlier work
Source text: The positive results observed with plitidepsin and BTZ against MM (both as single agents and in combination with DXM), their different mechanisms of action, and the potential synergism of the triple combination warranted the exploration of the efficacy of plitidepsin plus BTZ and DXM in a clinical trial in patients with relapsed and/or refractory MM.

[9] = Dose level 1 4.0/1.0/40.0, Day 1 of Cycle 1, NCA, n = 6
[10] = Dose level 2 4.0/1.3/40.0, Day 1 of Cycle 1, NCA, n = 3
[11] = Dose level 3 (RD cohort) 5.0/1.3/40.0, Day 1 of Cycle 1, NCA, n = 9
[12] = phase III APEX trial (crossover from DXM to BTZ)

Compound: Nc1cccc2c1CN(C1CCC(=O)NC1=O)C2=O (stereo not drawn) [lenalidomide]
- Median DoR [1]: 8.7 months

Compound: Cc1[nH]c2ccccc2c1CCNCc1ccc(/C=C/C(=O)NO)cc1 [panobinostat]
- Median DoR [1]: 6.0 months

Compound: CC1(C)CCC(CN2CCN(c3ccc(C(=O)NS(=O)(=O)c4ccc(NCC5CCOCC5)c([N+](=O)[O-])c4)c(Oc4cnc5[nH]ccc5c4)c3)CC2)=C(c2ccc(Cl)cc2)C1 [venetoclax]
- Median DoR [1]: 9.7 months

- AUC (time zero to infinity) [2, 9]: 77.7 (17.9) h*μg/L
- CL/F (total clearance after extravascular administration) [2, 9]: 23.4 (6.79) L/h
- HL (terminal half-life) [2, 9]: 39.1 (9.22) h
- V z /F (apparent volume of distribution during terminal phase after extravascular administration) [2, 9]: 1308 (431) L
- C max ([2]; Dose level 1 4.0/1.0/40.0, Day 1 of Cycle 1, subcutaneous bolus, n = 6): 11.0 (7.71) μg/L
- AUC (time zero to infinity) [2, 10]: 134 (46.8) h*μg/L
- CL/F (total clearance after extravascular administration) [2, 10]: 17.9 (6.03) L/h
- HL (terminal half-life) [2, 10]: 51.5 (41.4) h
- V z /F (apparent volume of distribution during terminal phase after extravascular administration) [2, 10]: 1208 (52.4) L
- C max ([2]; Dose level 2 4.0/1.3/40.0, Day 1 of Cycle 1, subcutaneous bolus, n = 3): 16.9 (4.21) μg/L
- AUC (time zero to infinity) [2, 11]: 138 (88.6) h*μg/L
- CL/F (total clearance after extravascular administration) [2, 11]: 24.9 (19.2) L/h
- HL (terminal half-life) [2, 11]: 49.0 (17.8) h
- V z /F (apparent volume of distribution during terminal phase after extravascular administration) [2, 11]: 1658 (1457) L
- C max ([2]; Dose level 3 (RD cohort) 5.0/1.3/40.0, Day 1 of Cycle 1, subcutaneous bolus, n = 9): 17.0 (8.87) μg/L
Compound: CC(C)C[C@H](NC(=O)[C@H](Cc1ccccc1)NC(=O)c1cnccn1)B(O)O [BTZ, bortezomib]
- ORR ([3]; phase II RETRIEVE trial): 40%
- ORR ([3]; phase II SUMMIT trial, including minimal response while on BTZ treatment): 35%
- Complete response rate [3, 12]: 9%
- Overall response rate [3, 12]: 43%
- Patients pre-treated with BTZ-based regimens who responded again to the drug alone [4]: 47%
- AUC (time zero to infinity) [5]: 151 (53.5) h*μg/L
- C max [5]: 16.5 μg/L and 16.5 (8.4) μg/L
- CL/F (total clearance after extravascular administration) [5]: 16.6 L/h and 16.6 (5.8) L/h
- HL (terminal half-life) [5]: 65.7 (46.5) h
- V z /F (apparent volume of distribution during terminal phase after extravascular administration) [5]: 1330 L and 1330 (578) L

Compound: Nc1cccc2c1C(=O)N(C1CCC(=O)NC1=O)C2=O (stereo not drawn) [pomalidomide]
- Median DoR [1]: 7.4 months

Compound: elotuzumab
- Median DoR [1]: 11.4 months

Compound: CC[C@H](C)[C@H]1NC(=O)[C@@H](NC(=O)[C@@H](CC(C)C)N(C)C(=O)[C@@H]2CCCN2C(=O)C(C)=O)[C@@H](C)OC(=O)[C@H](Cc2ccc(OC)cc2)N(C)C(=O)[C@@H]2CCCN2C(=O)[C@H](CC(C)C)NC(=O)[C@@H](C)C(=O)[C@H](C(C)C)OC(=O)C[C@@H]1O [Plitidepsin, plitidepsin] (Pyruvoyl-P[dNMeL]T[X1]LP[NMeY](Me); ester 3-C (inferred); N-terminus assumed)
- Cmax ([6]; Dose level 1 4.0/1.0/40.0, Day 1 of Cycle 1, 3-h i.v. infusion, n = 5): 83.8 ng/mL
- AUC(0-inf) ([6]; Dose level 1 4.0/1.0/40.0, Day 1 of Cycle 1, NCA, n = 5, read-out: AUC (time zero to infinity)): 1260 ng·h/mL
- clearance ([6]; Dose level 1 4.0/1.0/40.0, Day 1 of Cycle 1, NCA, n = 5, read-out: CL (total clearance) (converted)): 94.5 mL/min
- half-life ([6]; Dose level 1 4.0/1.0/40.0, Day 1 of Cycle 1, NCA, n = 5, read-out: HL (terminal half-life) (converted)): 40.1 h
- Vd ([6]; Dose level 1 4.0/1.0/40.0, Day 1 of Cycle 1, NCA, n = 5, read-out: V ss (volume of distribution at steady-state)): 169 L
- Vd ([6]; Dose level 1 4.0/1.0/40.0, Day 1 of Cycle 1, NCA, n = 5, read-out: V z (apparent volume of distribution during terminal phase)): 185 L
- Cmax ([6]; Dose level 2 4.0/1.3/40.0, Day 1 of Cycle 1, 3-h i.v. infusion, n = 3): 117 ng/mL
- AUC(0-inf) ([6]; Dose level 2 4.0/1.3/40.0, Day 1 of Cycle 1, NCA, n = 3, read-out: AUC (time zero to infinity)): 1420 ng·h/mL
- clearance ([6]; Dose level 2 4.0/1.3/40.0, Day 1 of Cycle 1, NCA, n = 3, read-out: CL (total clearance) (converted)): 93.2 mL/min
- half-life ([6]; Dose level 2 4.0/1.3/40.0, Day 1 of Cycle 1, NCA, n = 3, read-out: HL (terminal half-life) (converted)): 46.2 h
- Vd ([6]; Dose level 2 4.0/1.3/40.0, Day 1 of Cycle 1, NCA, n = 3, read-out: V ss (volume of distribution at steady-state)): 192 L
- Vd ([6]; Dose level 2 4.0/1.3/40.0, Day 1 of Cycle 1, NCA, n = 3, read-out: V z (apparent volume of distribution during terminal phase)): 394 L
- Cmax ([6]; Dose level 3 (RD cohort) 5.0/1.3/40.0, Day 1 of Cycle 1, 3-h i.v. infusion, n = 9): 71.7 ng/mL
- AUC(0-inf) ([6]; Dose level 3 (RD cohort) 5.0/1.3/40.0, Day 1 of Cycle 1, NCA, n = 9, read-out: AUC (time zero to infinity)): 1060 ng·h/mL
- clearance ([6]; Dose level 3 (RD cohort) 5.0/1.3/40.0, Day 1 of Cycle 1, NCA, n = 9, read-out: CL (total clearance) (converted)): 157 mL/min
- half-life ([6]; Dose level 3 (RD cohort) 5.0/1.3/40.0, Day 1 of Cycle 1, NCA, n = 9, read-out: HL (terminal half-life) (converted)): 44.6 h
- Vd ([6]; Dose level 3 (RD cohort) 5.0/1.3/40.0, Day 1 of Cycle 1, NCA, n = 9, read-out: V ss (volume of distribution at steady-state)): 341 L
- Vd ([6]; Dose level 3 (RD cohort) 5.0/1.3/40.0, Day 1 of Cycle 1, NCA, n = 9, read-out: V z (apparent volume of distribution during terminal phase)): 671 L
- Median CL [7]: 4.4 L/h
- Median peripheral volume [7]: 513 L
- In vitro activity of the combination of plitidepsin with BTZ or DXM [8]: synergistic activity

From paper PMC9972151, “Phase I study of plitidepsin in combination with bortezomib and dexamethasone in patients with relapsed/refractory multiple myeloma” (Cancer Medicine, 2022)
